Test results: patent US6177441A, “Treating red blood cell solutions with anti-viral agents” (Cerus Corporation, priority 1998, dated 2001)
Counter-ions that a name gives are not always drawn.

Columns and labels:
red blood cells [1] = test system: red blood cells
R17 [2] = type: cell-based, bacteriophage R17
R17 [3] = experiment: R17 inactivation by Compound 1 in packed red blood cells (Example 2); type: cell-based, bacteriophage R17
Protocol: Another experiment was performed to test the inactivation ability of a novel compound, Compound 1. A 1:1000 dilution of R17 (stock titer was 11.9 logs) was prepared in 25 ml packed red blood cells. To each of 5 tubes was added 5 ml of this R17-packed red blood cell solution. Compound 1 was then dissolved in saline to a final concentration of 3 mg/ml. The compound in solution was added to the […] as follows: the first tube, the control tube, received saline only; the second tube received 10 μg/ml of Compound 1 in saline; the third tube received 30 μg/ml of Compound 1 in saline; the forth tube received 100 μg/ml Compound 1 in saline and the final tube received 300 μg/ml of Compound 1 in saline. The tubes were mixed and then incubated at 4° C. overnight. […] Concentrations above 30 μg/ml inactivated approximately 4 logs of R17 with a starting titer of 10 logs of R17.

cell-associated HIV = experiment: microbe, parasite or virus in culture; type: cell-based, HIVIIIB; settings: Human immunodeficiency virus 1, Erythrocyte
cell-free HIV = experiment: microbe, parasite or virus in culture; type: cell-based; settings: Human immunodeficiency virus 1, Erythrocyte, 100 min
red blood cells [4] = settings: mouse, in vivo
red blood cells [5] = settings: mouse, in vivo; remark: listed apart in the source
R17 [6] = experiment: Kinetics of R17 inactivation by QM with NAC quench (Example 3); settings: for Log Titer: NAC/no QM, no NAC/no QM 8.80
red cells = settings: photo treatment; cited from earlier work
R17 [7] = test system: R17

With `O=C(O)CCCc1ccc(N(CCCl)CCCl)cc1` [Chlorambucil, chlorambucil] the “IgG binding of red cells” value (red blood cells [1]) was “did not alter”, the R17 inactivation (R17 [2]) was at most 0.4 logs and the “R17 inactivation (words)” value (R17 [2]) was “little or no inactivation”.

With `COc1c2occc2c(CN(CCCl)CCCl)c2ccc(=O)oc12` [Compound 1, 5-[N,N-bis(2-chloroethyl)amino]methyl-8-methoxypsoralen hydrochloride] the “R17 inactivation activity” value (R17 [3]; 10-300 μg/ml in packed red blood cells) was “showed R17 inactivation activity” and the R17 inactivated (R17 [3]; concentrations above 30 μg/ml, 4° C. overnight, starting titer 10 logs) was “approximately 4 logs”.

`CCN(CCCl)CCCNc1c2ccc(Cl)cc2nc2ccc(OC)cc12.Cl.Cl` [ICR-170, N-(2-chloroethyl)-N-ethyl-N'-(6-chloro-2-methoxy-9-acridinyl)-1,3-propanediamine dihydrochloride] showed a log reduction at 10 µg/mL (cell-associated HIV) of 0.5, a log reduction at 20 µg/mL (cell-associated HIV) of 1.2 and a log reduction at 40 µg/mL (cell-associated HIV) of 2. It also gave a log reduction at 80 µg/mL (cell-associated HIV) of 2, a log reduction at 10 µg/mL (cell-free HIV) of 0.6 and a log reduction at 20 µg/mL (cell-free HIV) of 1.3. For the same compound, the log reduction at 40 µg/mL (cell-free HIV) was 2.3, the log reduction at 80 µg/mL (cell-free HIV) was 4 and the “LOSS PER DAY” value (red blood cells [4]) was 2.71%. The RECOVERY (red blood cells [4]) was 86.0 ± 6.6, the “% RECOVERY, HIGH” value (red blood cells [5]) was 90.4 and the “% RECOVERY, LOW” value (red blood cells [5]) was 93.1.

In the case of `CC(=O)N[C@@H](CS)C(=O)O` [NAC, N-acetyl-cysteine], the “R17 kill by NAC alone” value (R17 [6]) is reported as “does not kill R17”, the “protection against QM inactivation” value (R17 [6]; NAC added before QM) is reported as “substantial, but not complete protection against QM inactivation” and the “Log Titer” value (R17 [6]; dilute at end) is reported as 8.35. For the same compound, the “Log Titer” value (R17 [6]; dilute) was 8.73 and the “quenching of QM activity” value (R17 [6]; combination of NAC and dilution) was “almost complete quenching of QM activity”.

For `CN(C)c1ccc2nc3ccc(=[N+](C)C)cc-3sc2c1` [methylene blue], the “ATP of photo treated red cells” value (red cells) is listed as “loss of ATP”, the “IgG binding of photo treated red cells” value (red cells) is listed as “binding of autologous immunoglobulin (IgG) to the red cell surface” and the “ion permeability of photo treated red cells” value (red cells) is listed as “enhanced ion permeability”.

In the case of `CCN(CC)CCCC(C)Nc1c2ccc(Cl)cc2nc2ccc(OC)cc12` (centres unmarked) [quinacrine], the “light-dependent kill of R17” value (R17 [7]) is reported as “no light-dependent kill”.
